Measured values published in patent publication US20020132225A1, “Compositions and methods for prolonging survival of chilled platelets” (priority 2000, published 2002).

Key:
stimulated THP-1 cells = assay: In vitro phagocytic assay: phagocytosis of chilled platelets by THP-1 cells (FACS); format: cell-based, human; details: for inhibition of phagocytosis of platelets by phagocytic cells: up to 200 mM
Source text: As a first step toward evaluation of this strategy, we have developed an in vitro phagocytic assay to study the interaction between chilled platelets and mononuclear phagocytes. […] These measurements can be made with a fluorescence-activated cell sorter (FACS). […] None of these sugars had any effect on platelet aggregation induced by thrombin or by ristocetin. The latter result is particularly important, because it reflects platelet hemostatic function mediated by GPIb interaction with von Willebrand factor.
In these experiments (FIG. 11, 12, and 13) platelets were loaded with fluorescent dye CM-Orange, then incubated for 1 h at 22° C. (control), 4° C. (chilled) or exposed to UV (UV). Phagocytosis was quantified by measuring the incorporation of CM-orange-fluorescence (CM-Orange labeled platelets) into monocyte-sized cells. Bound versus ingested platelets were separated by labeling the cells after the phagocytic period with FITC-labeled anti-integrin-β3 (CD 61) antibodies, e.g., bound platelets will be FITC positive, ingested platelets will be negative. The uptake of control versus chilled platelets was compared. Chilled platelets are phagocytized because they fail to label with FITC-conjugated anti-β3 antibodies (CM-Orange positive), whereas control platelets are poorly ingested although some platelets are bound to the monocyte surface. From this experiment, the ratio of 22° C. to 4° C. ingested platelets (CM-Orange positive) can be calculated. […] These findings indicate that the cold platelet clearance differs from UV-induced clearance.

OG-permeant platelets = assay: Actin filament barbed end exposure in chilled OG-permeabilized platelets; format: cell-based, human; details: OG-permeant platelets cooled
Protocol: We studied the biochemical and structural basis for the cold-induced shape transformation in human platelets and found it to require net actin assembly. To understand the signals involved in this process, we applied a permeabilization scheme to the cooling process that we have used to dissect PAR-1 mediated actin assembly. In this approach, platelets are first permeabilized with 0.25% octylglucoside (OG), then chilled to 4° C. for 5 min and rewarmed to 37° C. Resting platelets remained discoid at 37° C. after permeabilization with OG but changed shape when chilled. Chilled OG-permeant platelets have blebs on their surfaces and elaborate filopodial processes. […] Rewarming is required to assay filament end numbers, because we discovered that OG-treated platelets reseal in the cold, but become permeable again when rewarmed. We assayed the number of actin filament barbed ends biochemically by monitoring the acceleration of pyrene-actin polymerization rates fluorometrically in the presence and absence of CB (Hartwig, J. et al., Cell 82:643-653).

Row | Molecule | inhibition of phagocytosis of platelets by phagocytic cells (stimulated THP-1 cells) | effect on barbed ends exposed upon cooling (OG-permeant platelets) | other results
1 | O=C[C@H](O)[C@@H](O)[C@@H](O)[C@H](O)CO [D-galactose] | not |  | 
2 | COC1OC(CO)C(O)C(O)C1O [α-methyl-D-glycoside] |  |  | inhibition of CM-Orange pellet phagocytosis by stimulated THP-1 cells (stimulated THP-1 cells; FIG. 11-13): concentration dependent inhibition
3 | Nc1nc2c(ncn2[C@@H]2O[C@H](COP(=O)(O)OP(O)(O)=S)[C@@H](O)[C@H]2O)c(=O)[nH]1 [GDPβS] |  | no effect | 
4 | Nc1nc2c(ncn2[C@@H]2O[C@H](COP(=O)(O)OP(=O)(O)OP(O)(O)=S)[C@@H](O)[C@H]2O)c(=O)[nH]1 [GTPγS] |  | no effect | 
5 | CC(=O)N[C@H]1C(O)O[C@H](CO)[C@@H](O)[C@@H]1O (stereo partly drawn) [N-acetyl-D-glucosamine] | not |  | 
6 | O=C[C@H](O)[C@@H](O)[C@H](O)[C@H](O)CO [D-glucose] | not |  | 
7 | N17cdc42: negative dominant form of cdc42 GTPase |  | failed to inhibit | 
